What was measured:
Format in all cases: cell-based, human
BALL-1 cells = assay: MTT assay, BALL-1 cells with siRNA against ATR; conditions: 0.5 μM, 48 hours
Experimental: An effect of ATR activity on cell proliferation inhibition was examined. In the same manner as in Experimental Example 9, siRNA against ATR was introduced into BALL-1 cells, and the cells were incubated for 48 hours. Subsequently, a cell medium was replaced with a medium containing 3EZ,20Ac-ingenol at a final concentration of 0.5 μM, and culturing was performed for 48 hours.
For comparison, BALL-1 cells cultured for 48 hours in a medium containing 3EZ,20Ac-ingenol at a final concentration of 0.5 μM without introduction of siRNA were used. In addition, as controls, cells into which control siRNA (“ON-TARGET Plus Nontargeting pool,” GE Dharmacon) was introduced and which were then cultured in the absence of 3EZ,20Ac-ingenol were used.

p-Akt (Ser^473) = assay: Western blotting, p-Akt, Panc-1 cells; conditions: 3 μM
Experimental: (§1) Specifically, first, JeKo-1 cells were cultured for 0 (control), 12, 24, and 48 hours in the presence of 0.5 μM of 3EZ,20Ac-ingenol. In addition, Panc-1 cells were cultured for 0 (control), 12, 24, and 48 hours in the presence of 3 μM of 3EZ,20Ac-ingenol.
Subsequently, by Western blotting using an anti-Akt antibody (Cell Signaling Technology) and an anti-p-Akt (Ser^473) antibody (Cell Signaling Technology), abundances of total amounts of Akt protein and p-Akt in the entire cell fractions, nuclear fractions, and cytoplasm fractions of the respective cells were analyzed. Furthermore, as a loading control, actin protein was detected using an anti-actin antibody (Sigma).

p53 protein = assay: Western blotting, p53 protein, Panc-1 cells; conditions: 3 μM, 12 hours until 48 hours after treatment
Experimental: Specifically, JeKo-1 cells were cultured for 0 (control), 12, 24, and 48 hours in the presence of 0.5 μM of 3EZ,20Ac-ingenol. In addition, Panc-1 cells were cultured for 0 (control), 12, 24, and 48 hours in the presence of 3 μM of 3EZ,20Ac-ingenol.
Subsequently, ATR protein, p53 protein, and phosphorylated p53 (hereinafter also referred to as “p-p53”) protein in the respective cells were respectively detected using an anti-ATR antibody (Cell Signaling Technology), an anti-p53 antibody (Santa Cruz), and an anti-p-p53 antibody (Cell Signaling Technology). Furthermore, as a loading control, actin protein was detected using an anti-actin antibody (Sigma).

Panc-1 cells [1] = assay: Cell Death Detection ELISA, Panc-1; conditions: 3 μM
Experimental: The induction of apoptosis by 3EZ,20Ac-ingenol treatment was examined by detecting histone-binding DNA fragmentation in the cytoplasm using a Cell Death Detection […] kit (Roche Applied Science).
Specifically, Panc-1 cells were inserted into tubes at 5×10^3 cells/well/100 μL, and incubated for 6, 12, 24, 48, and 72 hours in the presence of 3EZ,20Ac-ingenol at a final concentration of 3 μM. Subsequently, the respective cells were lysed in a lysis buffer. Subsequently, the supernatant of cell debris of the respective cells was collected and transferred to an ELISA plate, and an absorbance at a wavelength of 405 nm was measured to measure the induction of apoptosis.

Panc-1 cells [2] = assay: MTT assay, Panc-1 cells; conditions: 48 hours, read-out: IC50 with respect to the Panc-1 cells
Experimental: JeKo-1 cells of a cell line derived from a human mantle cell lymphoma were seeded in a 96-well plate at 1×10^4 cells/well/100 μL. In addition, Panc-1 cells of a cell line derived from a human pancreatic cancer were seeded in a 96-well plate at 3×10^3 cells/well/100 μL.
Subsequently, 3EZ,20Ac-ingenol at final concentrations of 0 (control), 0.1, 0.5, 1, 5, and 10 μM was added the wells of the respective cells, and culturing was performed for 48 hours. Subsequently, cell proliferation was examined by MTT assay using a Cell Proliferation Kit I (Roche Applied Science).
First, JeKo-1 cells were seeded in a 96-well plate at 1×10^4 cells/well/100 μL. Subsequently, irinotecan at a final concentration of 0 (control), 0.5, 1, 5, 10, 20, and 30 μM was added to the wells of the cells and culturing was performed for 48 hours. In addition, Panc-1 cells were seeded in a 96-well plate at 3×10^3 cells/well/100 μL. Subsequently, irinotecan at a final concentration of 0 (control), 0.5, 1, 5, 10, 20, 30, and 50 μM was added to the wells of the cells and culturing was performed for 48 hours. Subsequently, cell proliferation was examined by MTT assay using a Cell Proliferation Kit I (Roche Applied Science).

[3] = test system: p-PTEN (Ser^380/Thr^382/383); assay: Western blotting, p-PTEN, BALL-1 cells; conditions: 0.5 μM, 3 to 48 hours, entire cell fraction
Experimental: The effect of 3EZ,20Ac-ingenol treatment on PTEN, p-PTEN, and p-Akt of BALL-1 cells was examined. First, BALL-1 cells were cultured for 3, 6, 12, 24, and 48 hours in the presence of 3EZ,20Ac-ingenol at a final concentration of 0.5 μM, and by Western blotting using an anti-PTEN antibody (Santa Cruz), an anti-p-PTEN (Ser^380/Thr^382/383) antibody (Santa Cruz), and an anti-p-Akt (Ser^473) antibody (Cell Signaling Technology), abundances of PTEN, p-PTEN, and p-Akt in the entire cell fraction were analyzed. In addition, cells cultured in the absence of 3EZ,20Ac-ingenol were used as controls.

GSK-3β = assay: Western blotting, GSK-3β, Panc-1 cells; conditions: 3 μM, entire cell, 12 hours
Experimental: as §1
Subsequently, abundances of GSK-3β and p-GSK-3β in the respective cells were analyzed by Western blotting using an anti-GSK-3β antibody (Cell Signaling Technology) and an anti-p-GSK-3β (Ser^9) antibody (Cell Signaling Technology). Furthermore, as a loading control, actin protein was detected using an anti-actin antibody (Sigma).

CCCCC/C=C\C=C\C(=O)O[C@H]1C(C)=C[C@]23C(=O)[C@@H](C=C(COC(C)=O)[C@@H](O)[C@]12O)[C@H]1[C@@H](C[C@H]3C)C1(C)C [3EZ,20Ac-ingenol, 3-O-(2′E,4′Z-decadienoyl)-20-O-acetylingenol]
reduction of cell proliferation inhibition by knockdown of ATR (BALL-1 cells): about 20% | abundance of p-Akt (p-Akt (Ser^473); entire cell fraction, 12 hours and 24 hours): a temporary increase in abundances of both p-Akt and total amount of Akt was recognized | abundance of p-Akt (p-Akt (Ser^473); entire cell fraction, 48 hours): a decrease was observed again | abundance of p-Akt (p-Akt (Ser^473); nuclear fraction and cytoplasm fraction, 12 to 24 hours): an increase in abundance of both p-Akt and total amount of Akt was recognized | abundance of p-Akt (p-Akt (Ser^473); nuclear fraction and cytoplasm fraction, 48 hours): a decrease was observed 48 hours after the treatment | expression level of p53 protein (p53 protein): an increase in expression level of p53 protein was recognized | DNA fragmentation (apoptosis), onset (Panc-1 cells [1]): DNA fragmentation started 24 hours after the incubation | amount of fragmented DNA (apoptosis) (Panc-1 cells [1]; 48 hours and 72 hours): the amount of fragmented DNA further increased | IC50 (Panc-1 cells [2]): 3000 nM | abundance of p-PTEN [3]: an abundance of p-PTEN increased | GSK-3β (an active type) (GSK-3β): an increase in GSK-3β was observed

From patent US11464750B2, “Anticancer agent and use thereof” (priority 2017, dated 2022)
